The text below walks through data of US20220296667A1, “COMPOSITION FOR A[…] TREATING NARCOLEPSY, […] RICE BRAN POWDER AS ACTIVE INGREDIENT, AND PREPARATION METHOD THEREFOR” (RAPHAGEN, priority 2019, published 2022).

The structures appear in SMILES notation. Bounds are passed on as bounds.

The half-life is the time needed for the level to fall by half in the phase considered.

For data set [1] the following is noted: background art; cited from earlier work.
Data set [2] has as its system zebrafish. Kind of data set: Dark/light transition of zebrafish. In kind it is in vivo. The following applies: dark and light conditions at 10-minute intervals, distance moved at 2-minute intervals; FIGS. 3, 4, 5. The method, then: The dark/light transition of zebrafish treated with the fermented rice bran powder obtained according to Example 1 was measured. Specifically, dark and light conditions were given at 10-minute intervals, and graphs for the distance moved at 2-minute intervals were measured (see FIGS. 3, 4, and 5).

The subject of data set [3] is zebrafish. The following applies: zebrafish whose brain is damaged by PTZ or the like; stated as known; cited from earlier work.

`O=C(O)CCCO` [GHB, Gamma hydroxybutyrate]: in data set [1], the “half-life (in words)” value is on record as “short half-life”.

As for `NC(=O)C[S+]([O-])C(c1ccccc1)c1ccccc1` (stereo not shown) [modafinil, Modafinil], the half-life in data set [1] was no less than 15 h.

For the compound `C1CCc2nnnn2CC1` [PTZ, Pentylenetetrazol], the “behavior pattern to dark/light (distance moved)” value in data set [2] is “moved regardless of the light/dark division”. Moreover, the color recognition entry in data set [3] is listed as “color cannot be normally recognized”.
